For orientation: chromatographic logP means a lipophilicity value derived from retention on a column. Low values mean a more hydrophilic compound, high ones a more lipophilic compound.

The text below walks through data of patent publication US6420362B1, “Azines containing the 5,6-di-hydro-(1,4,2) dioxazine-3-yl group and the use thereof as fungicides” (priority 1997, dated 2002).

The nature of the data set: log P determination by HPLC (EEC Directive 79/831 Annex V. A8). It is filed as physicochemical. Here is the method: The log P values were determined in accordance with EEC Directive 79/831 Annex V. A8 by HPLC (gradient method, acetonitrile/0.1% strength aqueous phosphoric acid).

The compound `CON=C(C1=NOCCO1)c1ccccc1C=NN=C(C)c1cccc(C(F)(F)F)c1` [Example 1, (5,6-dihydro-[1,4,2]dioxazin-3-yl)-(2-{[1-(3-trifluoromethylphenyl)-ethylidene]-hydrazonomethyl}-phenyl)-methanone O-methyl oxime] yielded a chromatographic logP of 3.8.
To `CON=C(C1=NOCCO1)c1ccccc1C=NN=C(C)c1ccc(C(F)(F)F)cc1` [Example 2, (5,6-dihydro-[1,4,2]dioxazin-3-yl)-(2-{[1-(4-trifluoromethylphenyl)-ethylidene]-hydrazonomethyl}-phenyl)-methanone O-methyl oxime] belongs 3.8; to `CON=C(C)C(C)=NN=Cc1ccccc1C(=NOC)C1=NOCCO1` [Example 4, 3-({2-[(5,6-dihydro-[1,4,2]dioxazin-3-yl)-methoxyimino-methyl]-benzylidene}-hydrazono)-butan-2-one O-methyl oxime], 3.17; to `CON=C(C(C)=NN=Cc1ccccc1/C(=N/OC)C1=NOCCO1)C(C)C` [Example 12], 3.92.
To `CCC(=NOC)C(C)=NN=Cc1ccccc1/C(=N/OC)C1=NOCCO1` [Example 13] belongs 3.58.
The same measure for `CCON=C(C)C(C)=NN=Cc1ccccc1C(=NOC)C1=NOCCO1` [Example 17]: 3.61.
